Assays:
Type in all cases: in vivo
[1] = test system: Italian ryegrass (Lolium multiflorum); test: Test A preemergence, visual injury rating; settings: for Plant response rating, Ryegrass, Italian: 31 g ai/ha, 0 to 100 scale, 0 no effect, 100 complete control; for Ryegrass, Italian plant response rating: 125 g ai/ha, 0 to 100 scale (0 no effect, 100 complete control)
Outline: (§1)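 Visual injury scored 0–100 (100 = complete control) against untreated controls about 10 days after treatment in a greenhouse. Test chemicals, formulated with surfactant in non-phytotoxic solvent, were sprayed on soil preemergence or on 2-10 cm, one- to two-leaf plants postemergence.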

[2] = test system: barnyardgrass (Echinochloa crus-galli); test: Test A preemergence, visual injury rating; settings: for Plant response rating, Barnyardgrass: 31 g ai/ha, 0 to 100 scale, 0 no effect, 100 complete control; for Barnyardgrass plant response rating: 125 g ai/ha, 0 to 100 scale (0 no effect, 100 complete control)
Outline: as §1

[3] = test system: giant foxtail (Setaria faberii); test: Test A preemergence, visual injury rating; settings: for Plant response rating, Foxtail, Giant: 31 g ai/ha, 0 to 100 scale, 0 no effect, 100 complete control; for Foxtail, Giant plant response rating: 125 g ai/ha, 0 to 100 scale (0 no effect, 100 complete control)
Outline: as §1

[4] = test system: kochia (Kochia scoparia); test: Test A preemergence, visual injury rating; settings: for Plant response rating, Kochia: 31 g ai/ha, 0 to 100 scale, 0 no effect, 100 complete control; for Kochia plant response rating: 125 g ai/ha, 0 to 100 scale (0 no effect, 100 complete control)
Outline: as §1

[5] = test system: pigweed (Amaranthus retroflexus); test: Test A preemergence, visual injury rating; settings: for Plant response rating, Pigweed: 31 g ai/ha, 0 to 100 scale, 0 no effect, 100 complete control; for Pigweed plant response rating: 125 g ai/ha, 0 to 100 scale (0 no effect, 100 complete control)
Outline: as §1

[6] = test system: ragweed (common ragweed, Ambrosia elatior); test: Test A preemergence, visual injury rating; settings: for Plant response rating, Ragweed: 31 g ai/ha, 0 to 100 scale, 0 no effect, 100 complete control; for Ragweed plant response rating: 125 g ai/ha, 0 to 100 scale (0 no effect, 100 complete control)
Outline: as §1

[7] = test system: Italian ryegrass (Lolium multiflorum); test: Test A postemergence, visual injury rating; settings: 0 is no effect, 100 is complete control; for Ryegrass, Italian plant response rating: 31 g ai/ha, 0 to 100 scale, approximately 10 days; for Ryegrass, Italian plant response rating (0 to 100 scale): 125 g ai/ha
Outline: as §1

[8] = test system: barnyardgrass (Echinochloa crus-galli); test: Test A postemergence, visual injury rating; settings: 0 is no effect, 100 is complete control; for Barnyardgrass plant response rating: 31 g ai/ha, 0 to 100 scale, approximately 10 days; for Barnyardgrass plant response rating (0 to 100 scale): 125 g ai/ha
Outline: as §1

[9] = test system: blackgrass (Alopecurus myosuroides); test: Test A postemergence, visual injury rating; settings: 0 is no effect, 100 is complete control; for Blackgrass plant response rating: 31 g ai/ha, 0 to 100 scale, approximately 10 days; for Blackgrass plant response rating (0 to 100 scale): 125 g ai/ha
Outline: as §1

[10] = test system: corn (Zea mays); test: Test A postemergence, visual injury rating; settings: 0 is no effect, 100 is complete control; for Corn plant response rating: 31 g ai/ha, 0 to 100 scale, approximately 10 days; for Corn plant response rating (0 to 100 scale): 125 g ai/ha
Outline: as §1

[11] = test system: galium (catchweed bedstraw, Galium aparine); test: Test A postemergence, visual injury rating; settings: 0 is no effect, 100 is complete control; for Galium plant response rating: 31 g ai/ha, 0 to 100 scale, approximately 10 days; for Galium plant response rating (0 to 100 scale): 125 g ai/ha
Outline: as §1

[12] = test system: giant foxtail (Setaria faberii); test: Test A postemergence, visual injury rating; settings: 0 is no effect, 100 is complete control; for Foxtail, Giant plant response rating: 31 g ai/ha, 0 to 100 scale, approximately 10 days; for Foxtail, Giant plant response rating (0 to 100 scale): 125 g ai/ha
Outline: as §1

[13] = test system: kochia (Kochia scoparia); test: Test A postemergence, visual injury rating; settings: 0 is no effect, 100 is complete control; for Kochia plant response rating: 31 g ai/ha, 0 to 100 scale, approximately 10 days; for Kochia plant response rating (0 to 100 scale): 125 g ai/ha
Outline: as §1

[14] = test system: pigweed (Amaranthus retroflexus); test: Test A postemergence, visual injury rating; settings: 0 is no effect, 100 is complete control; for Pigweed plant response rating: 31 g ai/ha, 0 to 100 scale, approximately 10 days; for Pigweed plant response rating (0 to 100 scale): 125 g ai/ha
Outline: as §1

[15] = test system: ragweed (common ragweed, Ambrosia elatior); test: Test A postemergence, visual injury rating; settings: 0 is no effect, 100 is complete control; for Ragweed plant response rating: 31 g ai/ha, 0 to 100 scale, approximately 10 days; for Ragweed plant response rating (0 to 100 scale): 125 g ai/ha
Outline: as §1

[16] = test system: wheat (Triticum aestivum); test: Test A postemergence, visual injury rating; settings: 0 is no effect, 100 is complete control; for Wheat plant response rating: 31 g ai/ha, 0 to 100 scale, approximately 10 days; for Wheat plant response rating (0 to 100 scale): 125 g ai/ha
Outline: as §1

[17] = test system: barnyardgrass (Echinochloa crus-galli); test: Test B flooded paddy test, plant response rating; settings: 250 g ai/ha; Flood; scale of 0 to 100 where 0 is no effect and 100 is complete control; 13 to 15 days
Outline: (§2)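 Pots were flooded to 3 cm above the soil surface at treatment, compound applied directly to the paddy water, and that depth held throughout. Plants were kept in a greenhouse for 13 to 15 days, then visually rated against untreated controls.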

[18] = test system: ducksalad (Heteranthera limosa); test: Test B flooded paddy test, plant response rating; settings: 250 g ai/ha; Flood; scale of 0 to 100 where 0 is no effect and 100 is complete control; 13 to 15 days
Outline: as §2

[19] = test system: rice (Oryza sativa); test: Test B flooded paddy test, plant response rating; settings: 250 g ai/ha; Flood; scale of 0 to 100 where 0 is no effect and 100 is complete control; 13 to 15 days
Outline: as §2

[20] = test system: sedge, umbrella (small-flower umbrella sedge, Cyperus difformis); test: Test B flooded paddy test, plant response rating; settings: 250 g ai/ha; Flood; scale of 0 to 100 where 0 is no effect and 100 is complete control; 13 to 15 days
Outline: as §2

SMILES | Plant response rating, Ryegrass, Italian [1] | Ryegrass, Italian plant response rating [1] | Plant response rating, Barnyardgrass [2] | Barnyardgrass plant response rating [2] | Plant response rating, Foxtail, Giant [3] | Foxtail, Giant plant response rating [3] | Plant response rating, Kochia [4] | Kochia plant response rating [4] | Plant response rating, Pigweed [5] | Pigweed plant response rating [5] | Plant response rating, Ragweed [6] | Ragweed plant response rating [6] | Ryegrass, Italian plant response rating [7] | Ryegrass, Italian plant response rating (0 to 100 scale) [7] | Barnyardgrass plant response rating [8] | Barnyardgrass plant response rating (0 to 100 scale) [8] | Blackgrass plant response rating [9] | Blackgrass plant response rating (0 to 100 scale) [9] | Corn plant response rating [10] | Corn plant response rating (0 to 100 scale) [10] | further results
C=CC(C)COC(=O)c1c(Br)cccc1Oc1ncc(Cl)cn1 (stereo not drawn) [Compound 37] | 0 | 0 | 0 | 30 | 20 | 70 | 0 | 0 | 0 | 0 | 0 | 0 | 0 | 0 | 0 | 30 | 0 | 30 | 0 | 10 | Galium plant response rating [11]: 10; Galium plant response rating (0 to 100 scale) [11]: 40; Foxtail, Giant plant response rating [12]: 0; Foxtail, Giant plant response rating (0 to 100 scale) [12]: 40; Kochia plant response rating [13]: 0; Kochia plant response rating (0 to 100 scale) [13]: 40; Pigweed plant response rating [14]: 20; Pigweed plant response rating (0 to 100 scale) [14]: 80; Ragweed plant response rating [15]: 0; Ragweed plant response rating (0 to 100 scale) [15]: 0; Wheat plant response rating [16]: 0; Wheat plant response rating (0 to 100 scale) [16]: 0; Plant response rating, Barnyardgrass [17]: 0; Plant response rating, Ducksalad [18]: 0; Plant response rating, Rice [19]: 0; Plant response rating, Sedge, Umbrella [20]: 0
C#CCCOC(=O)c1c(Br)cccc1Oc1ncc(Cl)cn1 [Compound 38] | 0 | 0 | 20 | 90 | 30 | 100 | 0 | 40 | 60 | 100 | 0 | 0 | 0 | 0 | 10 | 60 | 0 | 0 | 0 | 10 | Galium plant response rating [11]: 50; Galium plant response rating (0 to 100 scale) [11]: 80; Foxtail, Giant plant response rating [12]: 40; Foxtail, Giant plant response rating (0 to 100 scale) [12]: 90; Kochia plant response rating [13]: 30; Kochia plant response rating (0 to 100 scale) [13]: 60; Pigweed plant response rating [14]: 80; Pigweed plant response rating (0 to 100 scale) [14]: 100; Ragweed plant response rating [15]: 0; Ragweed plant response rating (0 to 100 scale) [15]: 10; Wheat plant response rating [16]: 0; Wheat plant response rating (0 to 100 scale) [16]: 0; Plant response rating, Barnyardgrass [17]: 0; Plant response rating, Ducksalad [18]: 40; Plant response rating, Rice [19]: 0; Plant response rating, Sedge, Umbrella [20]: 30
